The target of one experiment is WDR5 (Homo sapiens (Human), UniProt P61964). Nature of the experiment: TR-FRET binding assay (displacement of 10mer-Thr-FAM probe from WDR5). The settings on record: read-out: Ki for Inhibition of WDR5 by TR-FRET assay; TR-FRET, 10mer-Thr-FAM probe, WDR5-His tag 2 nM, pH 7.0.
The subject of experiment [1] is MV4:11 human cancer cell lines. Nature of the experiment: Anti-proliferative activity, CellTiter-Glo viability assay, 7 day protocol. The settings on record: Homo sapiens, MV4-11, 168 h, MV4:11 cells, 7 day incubation, read-out: GI50 on cellular proliferation of MV4:11 human cancer cell lines. The format is cell-based. How it is done: Viability assays are performed by dispensing […] into each well of an opaque 384-well plate and adding compounds at the indicated concentrations in a final volume of 32 μL and a final concentration of DMSO of 0.1% for all samples. After a set incubation period, 7 day protocol, the viability of cells in each well is assessed using the CellTiter-Glo assay (Promega), read on a GloMax 96 Microplane Luminometer (Promega). Serial dilutions of each cell type are included in all assays to generate standard curves and determine assay measurements are taken within the dynamic range of the instrument. GI50 values are calculated based on three biological replicates, each with three technical replicates. Data are expressed as mean plus/minus S.E.M.
(In ATP-based viability assays light output follows the ATP content of the culture.)

A value given as a limit tells only on which side of the number the result lay.

What is called Ki is a measure of affinity in units of concentration, obtained from inhibition or displacement. For the molecule `Cc1cnccc1-c1cc(Cn2ccn(C)c2=N)cc(C(=O)NCc2ccc(Cl)c(Cl)c2)c1` [Example 25, N-(3,4-dichlorobenzyl)-3-((2-imino-3-methyl-2,3-dihydro-1H-imidazol-1-yl)methyl)-5-(3-methylpyridin-4-yl)benzamide], the Ki at WDR5 was found to be 1.3 nM. Moreover, the GI50 in experiment [1] is 6100 nM.

For the molecule `Cc1ccc2[nH]ncc2c1-c1cc(Cn2ccn(C)c2=N)cc(C(=O)NCc2ccc(Cl)c(Cl)c2)c1` [Example 27, N-(3,4-Dichlorobenzyl)-3-((2-imino-3-methyl-2,3-dihydro-1H-imidazol-1-yl)methyl)-5-(5-methyl-1H-indazol-4-yl)benzamide], the Ki on WDR5 was 1.5 nM. Further, the GI50 in experiment [1] was 3100 nM.

Consider `Cc1cc(F)cc(F)c1-c1cc(Cn2ccn(C)c2=N)cc(C(=O)NCc2ccc(Cl)c(Cl)c2)c1` [Example 28, N-(3,4-Dichlorobenzyl)-2′,4′-difluoro-5-((2-imino-3-methyl-2,3-dihydro-1H-imidazo-1-yl)methyl)-6′-methyl-[1,1′-biphenyl]-3-carboxamide], for which the Ki at WDR5 was found to be 0.35 nM. Moreover, the GI50 in experiment [1] was 1300 nM.

Regarding `Cc1cc(CNC(=O)c2cc(Cn3ccn(C)c3=N)cc(-c3c(C)ccc4[nH]ncc34)c2)ccc1Cl` [Example 33, N-(4-Chloro-3-methylbenzyl)-3-((2-imino-3-methyl-2,3-dihydro-1H-imidazol-1-yl)methyl)-5-(5-methyl-1H-indazol-4-yl)benzamide], the Ki at WDR5 came out at 0.99 nM. In experiment [1], the GI50 was 4900 nM.

Consider `COc1cc(CN(C)C(=O)c2cc(Cn3ccn(C)c3=N)cc(-c3c(C)ccc4[nH]ncc34)c2)cc(OC)c1` [Example 34, N-(3,5-Dimethoxybenzyl)-3-((2-imino-3-methyl-2,3-dihydro-1H-imidazol-1-yl)methyl)-N-methyl-5-(5-methyl-1H-indazol-4-yl)benzamide], for which the Ki at WDR5 stood at 16 nM. In addition, the GI50 in experiment [1] stood at 30000 nM.

Consider `COc1cc(CNC(=O)c2cc(Cn3ccn(C)c3=N)cc(-c3c(C)ccc4[nH]ncc34)c2)cc(OC)c1` [Example 35, N-(3,5-Dimethoxybenzyl)-3-((2-imino-3-methyl-2,3-dihydro-1H-imidazol-1-yl)methyl)-5-(5-methyl-1H-indazol-4-yl)benzamide], for which the Ki at WDR5 came out at 1.3 nM. In addition, in experiment [1], the GI50 stood at 9000 nM.

Consider `Cc1ccnc(C(NC(=O)c2cc(Cn3ccn(C)c3=N)cc(-c3cccnc3C)c2)C2CC2)c1` (stereo not drawn) [Example 37, N-(Cyclopropyl(4-methylpyridin-2-yl)methyl)-3-((2-imino-3-methyl-2,3-dihydro-1H-imidazol-1-yl)methyl)-5-(2-methylpyridin-3-yl)benzamide], for which, on WDR5, the inhibitory constant (Ki) amounted to 0.4 nM. Moreover, the GI50 in experiment [1] is 3800 nM.

For `Cc1cc(CNC(=O)c2cc(Cn3ccn(C)c3=N)cc(-c3cccnc3C)c2)ncn1` [Example 38, 3-((2-Imino-3-methyl-2,3-dihydro-1H-imidazol-1-yl)methyl)-5-(2-methylpyridin-3-yl)-N-((6-methylpyrimidin-4-yl)methyl)benzamide], on WDR5, the Ki turned out to be 3.7 nM. Also, in experiment [1], the GI50 is 6000 nM.

Consider `Cc1ncccc1-c1cc(Cn2ccn(C)c2=N)cc(C(=O)NC(C2CC2)C2CC2)c1` [Example 39, N-(Dicyclopropylmethyl)-3-((2-imino-3-methyl-2,3-dihydro-1H-imidazol-1-yl)methyl)-5-(2-methylpyridin-3-yl)benzamide], for which the Ki on WDR5 was 17 nM. Also, the GI50 in experiment [1] turned out to be 30000 nM.

For `Cc1cc(C)nc(CNC(=O)c2cc(Cn3ccn(C)c3=N)cc(-c3cccnc3C)c2)n1` [Example 42, N-((4,6-Dimethylpyrimidin-2-yl)methyl)-3-((2-imino-3-methyl-2,3-dihydro-1H-imidazol-1-yl)methyl)-5-(2-methylpyridin-3-yl)benzamide], the inhibition constant (Ki) at WDR5 turned out to be 10 nM. Besides, the GI50 in experiment [1] is 28000 nM.

`Cc1ncccc1-c1cc(Cn2ccn(C)c2=N)cc(C(=O)NCc2ncc(Cl)cn2)c1` [Example 44, N-((5-Chloropyrimidin-2-yl)methyl)-3-((2-imino-3-methyl-2,3-dihydro-1H-imidazol-1-yl)methyl)-5-(2-methylpyridin-3-yl)benzamide]: the Ki at WDR5 worked out at 9.2 nM. In addition, the GI50 in experiment [1] was 22000 nM.

On to `Cc1cc(CNC(=O)c2cc(Cn3ccn(C)c3=N)cc(-c3cccc4[nH]nc(C)c34)c2)ccc1Cl` [Example 46, N-(4-chloro-3-methylbenzyl)-3-((2-imino-3-methyl-2,3-dihydro-1H-imidazol-1-yl)methyl)-5-(3-methyl-1H-indazol-4-yl)benzamide], for which the inhibition constant (Ki) at WDR5 came to 1.3 nM. Further, the GI50 in experiment [1] was 5900 nM.

Take `Cc1ccnc(C(NC(=O)c2cc(Cn3ccn(C)c3=N)cc(-c3c(C)ccc4[nH]ncc34)c2)C2CC2)c1` (stereo not drawn) [Example 47, N-(cyclopropyl(4-methylpyridin-2-yl)methyl)-3-((2-imino-3-methyl-2,3-dihydro-1H-imidazol-1-yl)methyl)-5-(5-methyl-1H-indazol-4-yl)benzamide]: at WDR5, the Ki is 0.88 nM. Moreover, the GI50 in experiment [1] came to 6700 nM.

On to `COc1cc(CNC(=O)c2cc(Cn3ccn(C)c3=N)cc(-c3c(C)cc(F)cc3F)c2)cc(OC)c1` [Example 52, N-(3,5-dimethoxybenzyl)-2′,4′-difluoro-5-((2-imino-3-methyl-2,3-dihydro-1H-imidazol-1-yl)methyl)-6′-methyl-[1,1′-biphenyl]-3-carboxamide], for which the inhibition constant (Ki) at WDR5 was found to be 0.19 nM. Moreover, the GI50 in experiment [1] turned out to be 510 nM.

Take `Cc1cc(CNC(=O)c2cc(Cn3ccn(C)c3=N)cc(-c3c(C)cc(F)cc3F)c2)ccc1Cl` [Example 53, N-(4-Chloro-3-methylbenzyl)-2′,4′-difluoro-5-((2-imino-3-methyl-2,3-dihydro-1H-imidazol-1-yl)methyl)-6′-methyl-[1,1′-biphenyl]-3-carboxamide]: the inhibition constant Ki at WDR5 stood at 0.56 nM. Besides, the GI50 in experiment [1] came out at 580 nM.

As for `Cc1cc(C(C)NC(=O)c2cc(Cn3ccn(C)c3=N)cc(-c3ccc(F)cc3C)n2)ncc1Cl` (stereo not drawn) [Example 55, N-(1-(5-Chloro-4-methylpyridin-2-yl)ethyl)-6-(4-fluoro-2-methylphenyl)-4-((2-imino-3-methyl-2,3-dihydro-1H-imidazol-1-yl)methyl)picolinamide], the Ki at WDR5 stood at 1.8 nM. In addition, the GI50 in experiment [1] came out at 1800 nM.

For the molecule `Cc1cc(CNC(=O)c2cc(Cn3ccn(C)c3=N)cc(-c3ccc(F)cc3C)n2)ccc1Cl` [Example 56, N-(4-Chloro-3-methylbenzyl)-6-(4-fluoro-2-methylphenyl)-4-((2-imino-3-methyl-2,3-dihydro-1H-imidazol-1-yl)methyl)picolinamide], the Ki at WDR5 stood at 1.2 nM. Besides, in experiment [1], the GI50 came out at 450 nM.

With `Cc1cc([C@@H](NC(=O)c2cc(Cn3ccn(C)c3=N)cc(-c3cccnc3C(F)(F)F)c2)C2CC2)ccc1F` [Example 60, (S)—N-(cyclopropyl(4-fluoro-3-methylphenyl)methyl)-3-((2-imino-3-methyl-2,3-dihydro-1H-imidazol-1-yl)methyl)-5-(2-(trifluoromethyl)pyridin-3-yl)benzamide], at WDR5, the Ki was below 0.1 nM. The GI50 in experiment [1] is below 100 nM.

`COc1cc(OC)cc(C(NC(=O)c2cc(Cn3ccn(C)c3=N)cc(-c3ncccc3C(F)(F)F)c2)C2CC2)c1` (stereo not drawn) [Example 61, N-(Cyclopropyl(3,5-dimethoxyphenyl)methyl)-3-((2-imino-3-methyl-2,3-dihydro-1H-imidazol-1-yl)methyl)-5-(3-(trifluoromethyl)pyridin-2-yl)benzamide]: the Ki at WDR5 worked out at 2.8 nM. Besides, the GI50 in experiment [1] is 4200 nM.

Take `COc1cc(CNC(=O)c2cc(Cn3ccn(C)c3=N)cc(-c3ccc(F)cc3OC(F)F)c2)cc(OC)c1` [Example 62, 2′-(Difluoromethoxy)-N-(3,5-dimethoxybenzyl)-4′-fluoro-5-((2-imino-3-methyl-2,3-dihydro-1H-imidazol-1-yl)methyl)-[1,1′-biphenyl]-3-carboxamide]: on WDR5, the Ki was 0.29 nM. The GI50 in experiment [1] is 800 nM.

With `COc1cc(OC)cc(C(NC(=O)c2cc(Cn3ccn(C)c3=N)cc(-c3ccc(F)cc3OC(F)F)c2)C2CC2)c1` (stereo not drawn) [Example 63, N-(Cyclopropyl(3,5-dimethoxyphenyl)methyl)-2′-(difluoromethoxy)-4′-fluoro-5-((2-imino-3-methyl-2,3-dihydro-1H-imidazol-1-yl)methyl)-[1,1′-biphenyl]-3-carboxamide], the inhibitory constant (Ki) at WDR5 was 0.1 nM. Moreover, in experiment [1], the GI50 worked out at 460 nM.

As to `Cc1cc([C@@H](NC(=O)c2cc(Cn3ccn(C)c3=N)cc(-c3ncccc3C(F)(F)F)c2)C2CC2)ccc1F` [Example 64, (S)—N-(Cyclopropyl(4-fluoro-3-methylphenyl)methyl)-3-((2-imino-3-methyl-2,3-dihydro-1H-imidazol-1-yl)methyl)-5-(3-(trifluoromethyl)pyridin-2-yl)benzamide], on WDR5, the inhibitory constant (Ki) is 0.59 nM. Moreover, the GI50 in experiment [1] is 930 nM.

For `COc1cc(CNC(=O)c2cc(Cn3ccn(C)c3=N)cc(-c3c(C)cc(F)cc3C)c2)cc(OC)c1` [Example 65, N-(3,5-dimethoxybenzyl)-4′-fluoro-5-((2-imino-3-methyl-2,3-dihydro-1H-imidazol-1-yl)methyl)-2′,6′-dimethyl-[1,1′-biphenyl]-3-carboxamide], the inhibitory constant (Ki) on WDR5 was determined as 0.63 nM. For the same molecule, in experiment [1], the GI50 turned out to be 300 nM.

In the case of `Cc1cc([C@@H](NC(=O)c2cc(Cn3ccn(C)c3=N)cc(-c3ncc(F)cc3C)c2)C2CC2)ccc1F` [Example 66, (S)—N-(Cyclopropyl(4-fluoro-3-methylphenyl)methyl)-3-(5-fluoro-3-methylpyridin-2-yl)-5-((2-imino-3-methyl-2,3-dihydro-1H-imidazol-1-yl)methyl)benzamide], the inhibitory constant (Ki) on WDR5 is 0.12 nM. Besides, the GI50 in experiment [1] was found to be 510 nM.

The values above are taken from patent US10844044B2 (Vanderbilt University, priority 2018, dated 2020).
